In PubChem BioAssay (NCI) one finds TGI, GI50 and outcome data, which are given here for 24 compounds.

≈ marks a conversion by molar mass, not a printed value. Where “and” joins values, the source holds several entries; their conditions need not be identical. Identical values can stand only once.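 How tested: cells in 96-well plates exposed to compound for 48 hours at five concentrations. GI50: concentration for 50% inhibition of growth. TGI: concentration producing complete growth inhibition.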 Calls of active or inactive are those of the source. No stated cut-off is given here; in the data, active means GI50 below about 0.43 µM; inactive means the rest.

Among the test systems are MDA-N; KM20L2 colon; DMS 273 small cell lung; LXFL 529 NSCLC; HOP-18 NSCLC; RXF-631 renal; DLD-1 colon; M19-MEL melanoma; XF 498 CNS.
Common to all, as to assay: NCI tumour cell line growth inhibition, 48 h

On to `CCOC(=O)Nc1cc2c(c(N)n1)N=C(c1ccc(Cl)cc1Cl)CN2`, for which, in the test on MDA-N, the TGI stood at 18.6 µM.
For the compound `COc1cc(O)c(C(=O)C2Cc3ccccc32)c(OC)c1` (stereo not drawn), the TGI in the test on KM20L2 colon, in the test on DMS 273 small cell lung, in the test with LXFL 529 NSCLC, with HOP-18 NSCLC, with RXF-631 renal and with DLD-1 colon was more than 100 µM throughout.
`COc1cc2c(cc1O)CCN[C@@]21CS[C@H]2c3c(OC(C)=O)c(C)c4c(c3C(COC1=O)N1C2C2NC(Cc3cc(C)c(OC)c(O)c32)[C@@H]1O)OCO4` (stereo partly drawn): the GI50 with DMS 273 small cell lung is 4.5 ng/mL (≈ 6.02 nM); in the test on DLD-1 colon, 0.000365 ng/mL and 4.5 ng/mL; with M19-MEL melanoma, 4.5 ng/mL (≈ 6.02 nM). The result with LXFL 529 NSCLC, with HOP-18 NSCLC and in the test on RXF-631 renal was inactive. Besides, the TGI with M19-MEL melanoma stood at 4.5 ng/mL.
With `CC(C)(c1ccc(C=O)o1)c1ccc(C(C)(C)c2ccc(C=O)o2)o1`, the TGI in the test with KM20L2 colon, in the test with DMS 273 small cell lung, in the test on LXFL 529 NSCLC, in the test on HOP-18 NSCLC and with RXF-631 renal was more than 100 µM in each case.
Take `COc1cc2c3c(c4ccc(O)cc4c2cc1OC)[C@@H](O)[C@@H]1CCCN1C3`: in the test with MDA-N, the TGI stood at 0.145 µM.
Regarding `CC(=O)OC1(C(C)=O)CC2(c3ccccc3)OC1(c1ccccc1)c1ccccc12` (stereo not drawn), the TGI with KM20L2 colon is more than 100 µM; in the test with XF 498 CNS, 33.3 µM; in the test on DMS 273 small cell lung it was 22.2 µM; in the test with LXFL 529 NSCLC, more than 100 µM; with HOP-18 NSCLC, more than 100 µM; with RXF-631 renal, more than 100 µM. Moreover, the results for the TGI in the test with DLD-1 colon and in the test on M19-MEL melanoma were more than 100 µM and 80.4 µM, respectively.
Regarding `O=C(Nc1c[nH]c(=O)[nH]c1=O)Oc1ccccc1`, in the test with MDA-N, the TGI was more than 100 µM.
On to `N#C/C(=C/c1ccc([N+](=O)[O-])o1)c1ccccc1`, for which the TGI with KM20L2 colon, in the test on DMS 273 small cell lung, in the test with LXFL 529 NSCLC, in the test with HOP-18 NSCLC, in the test on DLD-1 colon and with M19-MEL melanoma was more than 100 µM each time.
Turning to `CCc1ccc([OH2+])c(C(=O)[O-])c1.CCc1ccc([OH2+])c(C(=O)[O-])c1.CCc1ccc([OH2+])c(C(=O)[O-])c1.CCc1ccc([OH2+])c(C(=O)[O-])c1.[Cu+2].[Cu+2]`, in the test on MDA-N, the GI50 is more than 71.1 µM and the TGI is more than 100 µM.
In the case of `O=C1c2c(c3c4ccccc4n(CC4CO4)c3c3[nH]c4ccccc4c23)C(=O)N1Cc1ccccc1` (stereo not drawn), the TGI with XF 498 CNS, in the test with DMS 273 small cell lung, in the test with LXFL 529 NSCLC, in the test with RXF-631 renal and in the test on M19-MEL melanoma was more than 100 µM in each case.
As for `N#Cc1sc2nc3c(c(-c4ccccc4)c2c1N)CCCC3`, the TGI was 92.2 µM in the test with XF 498 CNS, more than 100 µM with DMS 273 small cell lung, more than 100 µM with LXFL 529 NSCLC and more than 100 µM with M19-MEL melanoma.
Turning to `CCNC(=O)O/N=C1\CCC2[C@@H]3CC=C4C[C@@H](OC(=O)NCC)CC[C@]4(C)C3CC[C@]12C` (stereo partly drawn), the TGI in the test with KM20L2 colon was determined as 12.7 µM; in the test on XF 498 CNS, 0.911 µM; in the test on DMS 273 small cell lung, 3.54 µM; in the test with LXFL 529 NSCLC, 2.2 µM; with HOP-18 NSCLC it was 6.73 µM; in the test with RXF-631 renal, 17.3 µM. The values for the TGI with DLD-1 colon and with M19-MEL melanoma were more than 100 µM and 4.79 µM, respectively.
`CN(N=O)c1ccc(/C=C/c2ccnc3ccccc23)cc1` returned a TGI in the test on MDA-N of more than 100 µM.
`COC(=O)CC(=O)OC1C[C@@H]2CCC3C(C)(C)CCC[C@]3(C)C23CC[C@@]1(C)C3` (stereo partly drawn): the TGI with KM20L2 colon was 37.6 µM; with XF 498 CNS, 34.4 µM; in the test on DLD-1 colon, 34.2 µM; in the test with M19-MEL melanoma, 36.3 µM.
Regarding `NC1(C(=O)O)CCC(C(=O)O)CC1` (stereo not drawn), the TGI in the test with KM20L2 colon, in the test with XF 498 CNS, in the test on DMS 273 small cell lung, in the test on LXFL 529 NSCLC, with HOP-18 NSCLC and in the test on RXF-631 renal was more than 100 µM throughout. Moreover, the TGI in the test on DLD-1 colon and in the test on M19-MEL melanoma was more than 100 µM in each case.
In the case of `N/N=C1/C(=O)N(c2ccc(Cl)cc2)C(=O)C(=O)C1c1nc2ccccc2s1` (stereo not drawn), the TGI in the test with KM20L2 colon, with XF 498 CNS, with DMS 273 small cell lung, in the test with LXFL 529 NSCLC, in the test on HOP-18 NSCLC and in the test on DLD-1 colon was more than 100 µM in each case. Further, in the test with M19-MEL melanoma, the TGI is more than 100 µM.
For `NN=C1/C(=C\c2ccccc2)CCC/C1=C/c1ccccc1`, the TGI in the test on KM20L2 colon, in the test on DMS 273 small cell lung, in the test on LXFL 529 NSCLC, in the test on HOP-18 NSCLC, in the test on DLD-1 colon and with M19-MEL melanoma was more than 100 µM in each case.
In the test on MDA-N, `COc1ccc2c(Cl)cc(NC(=S)Nc3ccccc3)nc2c1` displayed a TGI of 32.4 µM.
Take `O=C1c2ccccc2C(=O)c2c1ccc1c3ccccc3n(-c3ccccc3)c21`: the TGI came to 53.5 µM in the test on KM20L2 colon; 34.4 µM in the test on DMS 273 small cell lung; 30.7 µM in the test on LXFL 529 NSCLC; 27.6 µM with HOP-18 NSCLC; 20.7 µM with RXF-631 renal; 41.6 µM with DLD-1 colon. The TGI with M19-MEL melanoma was 38.6 µM; with MDA-N, more than 51.4 µM.
Take `Nc1ncc(CN2CCCC2)c(-c2ccccc2O)n1`: the TGI in the test with KM20L2 colon, in the test with XF 498 CNS, in the test with DMS 273 small cell lung, in the test with LXFL 529 NSCLC, in the test with HOP-18 NSCLC and in the test on DLD-1 colon was more than 750 µM in each case. The TGI in the test on M19-MEL melanoma is more than 750 µM.
In the case of `COc1ccc2c(c1O)[C@@]13CCCC=C1[C@@H](C2)N(C)CC3`, the TGI in the test on MDA-N is more than 100 µM.
`CSCSCC(CO)NC(=O)/C=C/c1c(C)[nH]c(=O)[nH]c1=O` (stereo not drawn): the TGI with KM20L2 colon, with DMS 273 small cell lung, with LXFL 529 NSCLC, in the test on HOP-18 NSCLC, in the test on DLD-1 colon and in the test with M19-MEL melanoma was more than 100 µM each time.
In the case of `CC1=C(C(=S)Nc2ccc(Cl)c(C(=O)OC(C)C)c2)SCCO1`, the TGI in the test with MDA-N amounted to 39.2 µM.
With `CCN(CC)c1ccc(N=Nc2ccc(-c3nc4cccnc4s3)cc2)cc1`, the TGI is more than 100 µM in the test on KM20L2 colon, 72.1 µM with XF 498 CNS, more than 100 µM in the test on LXFL 529 NSCLC and more than 100 µM in the test with DLD-1 colon.
